SMILES strings stand for the structures.

The target in this test is Tyrosine-protein kinase BTK (Homo sapiens, UniProt Q06187). The test can be described thus: Biochemical kinase assay wt-BTK. How it is done: To determine the inhibitory activity of compounds on wt-BTK enzyme activity, the IMAP assay (Molecular Devices) was used. Compounds were serially diluted in dimethylsulfoxide (DMSO) and subsequently in 4% DMSO in IMAP reaction buffer, which consists of 10 mM Tris-HCl, pH 15 7.5, 10 mM MgCl2, 0.01% Tween-20, 0.1% NaN3 and 1 mM freshly prepared dithiotreitol (DTT). Compound solution was mixed with an equal volume of full-length wt-BTK enzyme (Carna Biosciences, cat. no. 08-180) in IMAP reaction buffer. After pre-incubation of 1 hour in the dark at room temperature, fluorescein-labeled MBP-derived substrate peptide (Molecular Devices, cat. no. RP 7123) was added, followed by ATP to start the reaction. Final enzyme concentration was 1.2 nM, final substrate concentration 50 nM, and final ATP concentration was 4 μM. The reaction was allowed to proceed for 2 hours at room temperature in the dark. The reaction was stopped by quenching with IMAP progressive binding solution according to the protocol of the manufacturer (Molecular Devices). Fluorescein polarization was measured on an Envision multimode reader (Perkin Elmer, Waltham, MA, U.S.A.).
Tyrosine-protein kinase BTK, sequence (Q06187 whole entry): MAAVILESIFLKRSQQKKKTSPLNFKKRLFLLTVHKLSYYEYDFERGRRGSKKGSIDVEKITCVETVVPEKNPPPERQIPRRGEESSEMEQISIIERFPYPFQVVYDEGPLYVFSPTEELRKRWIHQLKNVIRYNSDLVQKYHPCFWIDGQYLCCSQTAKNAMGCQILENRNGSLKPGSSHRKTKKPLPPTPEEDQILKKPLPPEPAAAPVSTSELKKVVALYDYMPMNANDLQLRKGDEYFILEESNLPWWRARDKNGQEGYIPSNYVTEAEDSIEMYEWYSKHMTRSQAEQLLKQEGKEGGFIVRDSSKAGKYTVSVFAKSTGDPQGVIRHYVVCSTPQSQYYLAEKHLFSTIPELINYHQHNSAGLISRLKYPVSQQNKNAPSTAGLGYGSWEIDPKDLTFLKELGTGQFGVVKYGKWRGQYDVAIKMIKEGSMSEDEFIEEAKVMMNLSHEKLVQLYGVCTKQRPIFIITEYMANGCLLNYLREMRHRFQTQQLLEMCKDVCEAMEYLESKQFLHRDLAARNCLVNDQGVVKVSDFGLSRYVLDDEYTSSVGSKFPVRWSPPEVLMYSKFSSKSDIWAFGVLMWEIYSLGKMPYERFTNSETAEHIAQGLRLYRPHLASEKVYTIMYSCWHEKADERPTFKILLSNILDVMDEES

`C[C@@H]1CCn2nc(-c3ccc(C(=O)Nc4cc(C(F)(F)F)ccn4)cc3)c3c(N)ncc(c32)/C=C/CCCCC(=O)N1` [US20250074911, Example 54] showed an IC50 of less than 5 nM.

The term IC50 denotes the point on the concentration scale where inhibition reaches its midpoint. A higher IC50 goes with weaker potency.
